According to patent publication US10155038B2, “Cells prepared by transient transfection and methods of use thereof” (Yale University, priority 2007, dated 2018):

Assays:
EML cells = assay: GFP transfection of EML cells by nucleofection, FACS; format: cell-based, mouse; conditions: FIG. 2B; for GFP expression when ATP in the E-PAP reaction was replaced by ATP analog: without tail extension
Procedure: Electroporation was performed using an Amaxa NUCLEOFECTOR™-II (Amaxa Biosystems, Cologne, Germany) in accordance with manufacturer recommendations. Jurkat and B cell lines were transfected using NUCLEOFECTOR™-II solution V and the set of recommended regimes for electroporation. EML cells were transfected using solutions V, T and R and different regimes of electroporation. T lymphocytes were transfected using T cell NUCLEOFECTOR™-II solution and different regimes of electroporation. Alternative methods of nucleic acids delivery were also used: cationic liposome mediated transfection was performed using LIPOFECTIN® or LIPOFECTAMIN® (Invitrogen). Electroporation was also performed with the ECM 830 (BTX) (Harvard Instruments, Boston, Mass.) or the Gene Pulser II (BioRad, Denver, Colo.), Multiporator (Eppendorf, Hamburg Germany). All procedures were performed as directed by the manufacturers. pmaxGFP plasmid DNA (Amaxa Biosystems) was used as the DNA control. The efficiency of transfection (ET) was determined 18h after transfection by fluorescence activated cell sorting (FACS). In some experiments transfectants were further analyzed each 24h until GFP could not longer be detected. Cell viability was determined by trypan blue dye exclusion.
Flow cytometry was performed using the fluorescent activated cell sorting (FACS®) assay. Flow cytometry was performed on cell subpopulations was performed at the Yale Cancer Center Flow Cytometry Shared Resource, using a FACS® Calibur flow cytometer (Becton-Dickinson, San Jose, Calif.) equipped with 488 nm laser and the standard filter setup. Fluorescence signals were collected on a logarithmic scale. A minimum of ten thousand cells were interrogated for each sample. Analysis of data was performed using FlowJo software (Tree Star, Inc., San Carlos, Calif.). The expression efficiency was calculated as the difference between the geometric mean of fluorescence of the transfectants and control (mock transfected) cells. […]

metastatic melanoma = conditions: cited from earlier work
[1] = test system: mantle cell lymphoma (MCL) cell lines; assay: Viability of MCL cell lines, CELLTITER-GLO assay; format: cell-based
Excerpt: FIG. 13 is a line graph showing viability (percent) of various mantle cell lymphoma (MCL) cancer cell lines (SP-53, SP-49, Granta, JEKO, and TVM) following treatment with various concentrations (M) of the BH3 mimetic ABT-737.
FIGS. 14A-14D are plots showing viability (Relative Light Units) following a CELLTITER-GLO® assay of various mantle cell lymphoma (MCL) cancer cell lines: JVM-2 (FIG. 14A), Granta-519 (FIG. 14B), JEKO-1 (FIG. 14C), and SP-53 (FIG. 14D) following treatment with various concentrations (M) of the BH3 mimetic BIM SAHB (-▪-), or a BIM SAHB R153D variant control (-●-).
A panel of mantle cell lymphoma (MCL) cell lines were exposed to BIM SAHBA, BIM SAHBA(R153D), or vehicle alone for 24 hours in OptiMEM medium followed by viability testing using the CELLTITER-GLO® (Promega) assay.

caspase 3/7 = assay: Caspase 3/7 activation in MCL cell lines; format: cell-based; conditions: JVM-2, Granta-519, JEKO-1, SP-53
Excerpt: FIGS. 15A-15D are plots showing caspase 3/7 activation (Relative Light Units) in various mantle cell lymphoma (MCL) cancer cell lines: JVM-2 (FIG. 15A), Granta-519 (FIG. 15B), JEKO-1 (FIG. 15C), and SP-53 (FIG. 15D) following treatment with various concentrations (μM) of the BH3 mimetic SAHB (right hand bar in each pair), or a SAHB R153D variant control (left hand bar in each pair).

GFP mRNA = assay: siRNA inhibition of GFP mRNA expression in Jurkat cells; format: cell-based; conditions: Jurkat cells with EGFP mRNA; the day after transfection
Excerpt: Jurkat T cells were electroporated with different amount of FITC labeled siRNA. The condition and the kinetics of siRNA transfection were identical to mRNA transfection.

With `Nc1ncnc2c1ncn2[C@@H]1O[C@H](CO)C[C@H]1O` [cordycepin] the “GFP expression when ATP in the E-PAP reaction was replaced by ATP analog” value (EML cells) was “increased”.
In the case of nivolumab: anti-PD-1 antibody, the overall response rate (metastatic melanoma) is given as 30-40%.
With “synthetic peptide modeled on the BIM BH3 death domain with all-hydrocarbon crosslink; IWIAQELRXIGDXFNAYYARR (SEQ ID NO:1) [BIM SAHBA]” the “EC50s, impaired viability” value ([1]; 24 hours, OptiMEM medium, panel of MCL cell lines) was “low micromolar range” and the “caspase 3/7 activation” value (caspase 3/7) was “correlated with caspase 3/7 activation”.
In the case of `CO[C@H]1[C@@H](O)[C@H](n2c[n+](C)c3c(=O)[nH]c(N)nc32)O[C@@H]1COP(=O)(O)OP(=O)(O)OP(=O)(O)OC[C@H]1O[C@@H](n2cnc3c(=O)[nH]c(N)nc32)[C@H](O)[C@@H]1O` [ARCA, 3′-O-Methyl-m7G[5′]ppp[5′]G], the “increase of GFP expression compared to the standard capping procedure” value (EML cells; GFP mRNA capped with ARCA) is reported as “two-fold increase”.
For “anti-GFP siRNA: anti-GFP siRNA (GCAAGCUGACCCUGAAGUUCAU) (chemistry not given here)”, the “inhibition of GFP mRNA expression” value (GFP mRNA) was 80%.
In the case of `CN(C)CC[C@H](CSc1ccccc1)Nc1ccc(S(=O)(=O)NC(=O)c2ccc(N3CCN(Cc4ccccc4-c4ccc(Cl)cc4)CC3)cc2)cc1[N+](=O)[O-]` [ABT-737], the effect on viability ([1]; FIG. 13, SP-53, SP-49, Granta, JEKO, JVM) is reported as “reduced viability in a subset of the MCL cell lines”.
For `Nc1ncnc2c1nnn2[C@@H]1O[C@H](CO)[C@@H](O)[C@H]1O` [8-azaadenosine], the “GFP expression when ATP in the E-PAP reaction was replaced by ATP analog” value (EML cells) was “increased”.
